Literature values, collected in patent US20210022994A1, “SUSTAINED RELEASE TREPOSTINIL-COMPOUND MICROPARTICLE COMPOSITIONS” (Lupin Holdings, B.V., priority 2019, published 2021).

Details: in human plasma

## CCCCC[C@H](O)CC[C@@H]1[C@H]2Cc3cccc(OCC(=O)O)c3C[C@H]2C[C@H]1O [treprostinil, (1R,2R,3aS,9aS)-[[2,3,3a,4,9,9a-hexahydro-2-hydroxy-1-[(3S)-3-hydroxyoctyl]-1Hbenz[f]inden-5-yl]oxy]acetic acid]
  half-life: 2 to 4 h
